Experimental data from ChEMBL document CHEMBL4152182, “Recent acquisitions on oxyprenylated secondary metabolites as anti-inflammatory agents” (Eur J Med Chem, 2018).

Assays:
Mus musculus [1] = test: Anti-inflammatory activity in mouse assessed as inhibition of croton oil-induced ear edema at 0.3 umol/cm2 administered topically relative to control; format: functional
Mus musculus [2] = test: Anti-inflammatory activity in mouse assessed as inhibition of croton oil-induced ear edema at 10 umol/cm2 administered topically relative to control; format: functional
[3] = Antitumor activity in mouse adenocarcinoma model at 100 ppm relative to control; format: functional
[4] = Antitumor activity in mouse adenocarcinoma model at 500 ppm relative to control; format: functional
Mus musculus [5] = test: (§1) Anti-parkinson's activity in intranigral LPS-induced Parkinson's disease-like C57BL/6 mouse model assessed as inhibition of microglial hyperactivation by measuring IBA1 positive cells at 19.3 mg/kg, sc once daily for 21 days starting from day 1 post LPS treatment by immunohistochemistry relative to control; format: functional; conditions: C57BL/6, sc
Mus musculus [6] = test: Anti-parkinson's activity in intranigral LPS-induced Parkinson's disease-like C57BL/6 mouse model assessed as astrocytes activation at 19.3 mg/kg, sc once daily for 21 days starting from day 1 post LPS treatment by confocal fluorescence microscopic method relative to control; format: functional
Mus musculus [7] = test: as §1, with “protection against dopaminergic neuronal loss in substantia nigra” for “inhibition of microglial hyperactivation”, “increase in TH-positive neuronal” for “IBA1 positive”; format: functional
RAW264.7 [8] = test: Anti-inflammatory activity in mouse RAW264.7 cells assessed as inhibition of LPS-induced iNOS gene expression relative to control; format: functional
RAW264.7 [9] = test: Anti-inflammatory activity in mouse RAW264.7 cells assessed as inhibition of LPS-induced COX-2 gene expression relative to control; format: functional
Mus musculus [10] = test: Anti-inflammatory activity in mouse assessed as inhibition of carrageenan-induced paw edema at 10 mg/kg preincubated for 5 hrs followed by carrageenan challenge relative to control; format: functional
Neutrophil = test: Anti-inflammatory activity in human neutrophils assessed as inhibition of fMLP/CB-induced superoxide anion generation; format: functional, cell-based
RAW264.7 [11] = test: Anti-inflammatory activity in mouse RAW264.7 cells assessed as inhibition of LPS-induced NO production; format: functional, cell-based
Mus musculus [12] = test: as §1, with “25” for “19.3”; format: functional; conditions: C57BL/6, sc
Mus musculus [13] = test: Anti-parkinson's activity in intranigral LPS-induced Parkinson's disease-like C57BL/6 mouse model assessed as astrocytes activation at 25 mg/kg, sc once daily for 21 days starting from day 1 post LPS treatment by confocal fluorescence microscopic method relative to control; format: functional
Mus musculus [14] = test: as §1, with “protection against dopaminergic neuronal loss in substantia nigra” for “inhibition of microglial hyperactivation”, “increase in TH-positive neuronal” for “IBA1 positive”, “25” for “19.3”; format: functional

COc1cc(CO)cc(OC)c1OCC=C(C)C
inhibition (INH) (Mus musculus [1]): 31%
inhibition (INH) (Mus musculus [2]): 77%

C=C(C)CCC/C(C)=C/COc1ccc(/C=C/C(=O)N[C@@H](CCCNC(=N)N[N+](=O)[O-])C(=O)O)cc1OC
Activity [3]: 84%
Activity [4]: 94%

CC(C)=CCOC1=CC(=O)c2ccccc2C1=O
inhibition (INH) (Mus musculus [1]): 14%

CC(C)=CCOc1ccc2ccc(=O)oc2c1 [7-PRENYLOXYCOUMARIN]
inhibition in vivo at 19.3 mg/kg (Mus musculus [5]): 19.1%
Activity (Mus musculus [6]): 65.3%
fold change (FC) (Mus musculus [7]): 2.2

CC(C)=CCOc1c2occc2cc2ccc(=O)oc12 [PENTOSALEN]
inhibition (INH) (RAW264.7 [8]): 69.2%
inhibition (INH) (RAW264.7 [9]): 66.7%
inhibition in vivo at 10 mg/kg (Mus musculus [10]): 54.4%
IC50 (Neutrophil): 1.7 µM

CC(C)=CCOc1ccc(CCO)cc1 [ETROGOL]
inhibition (INH) (Mus musculus [1]): 32%
inhibition (INH) (Mus musculus [2]): 78%

CC(C)=CCOc1ccc(CCCO)cc1
inhibition (INH) (Mus musculus [1]): 28%
inhibition (INH) (Mus musculus [2]): 68%

COc1c(OC/C=C(\C)CCC=C(C)C)ccc2ccc(=O)oc12 [COLLININ]
IC50 (RAW264.7 [11]): 5.9 µM

CC(C)=CCC/C(C)=C/COc1ccc2ccc(=O)oc2c1 [AURAPTENE]
inhibition in vivo at 25 mg/kg (Mus musculus [12]): 39.1%
Activity (Mus musculus [13]): 68.4%
fold change (FC) (Mus musculus [14]): 2.2
